Measured values: ChEMBL document CHEMBL1201862, “PubChem BioAssay data set” (2004)
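All cell lines were grown in 96-well plates and treated with compound for 48 hours. At the GI50, growth is halved.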 Active and inactive are the calls of the source. Rule as the data show it: active = GI50 up to about 1.1 µM and inactive = higher.

Tests used:
Test in all cases: NCI tumour cell line growth inhibition, 48 h
DMS-273 = system: DMS-273
KM-20L2 = system: KM-20L2
M19-MEL = system: M19-MEL
SNB-78 = system: SNB-78
XF498 = system: XF498
LXFL 529 = system: LXFL 529
DLD-1 = system: DLD-1
HOP-18 = system: HOP-18
RXF 631 = system: RXF 631

Measured: GI50

Cc1cccc(C(C)C)c1NC(=O)CC1C(=O)Nc2ccccc2S1(=O)=O (stereo not drawn)
inactive: DMS-273 6.03 µM | KM-20L2 18.1 µM | M19-MEL 18.6 µM | SNB-78 17.7 µM | XF498 27.6 µM | LXFL 529 16.7 µM | DLD-1 9.25 µM | HOP-18 26.4 µM | RXF 631 13.4 µM

O=C(Cc1ccccc1)C(c1ccccc1)S(=O)(=O)c1ccccc1 (stereo not drawn)
inactive: DMS-273 > 100 µM | KM-20L2 > 100 µM | M19-MEL > 100 µM | SNB-78 97.7 µM | XF498 > 100 µM | LXFL 529 87.1 µM | DLD-1 > 100 µM | HOP-18 85.5 µM | RXF 631 > 100 µM
